Test results taken from patent US20230143612A1 (Arbutus Biopharma Corporation, priority 2020, published 2023).

Target: PD-L1 His protein / PD-1 Fc protein (Homo sapiens, UniProt Q9NZQ7)
Assay: HTRF Assay (PD-1/PD-L1 interaction)
Format: binding
Details: PD-L1 His 6 nM, PD-1 Fc 6 nM
Description: PD-L1 His protein was prepared and added at the final concentration of 6 nM in the White opaque 384 well plate (Corning cat #3824BC). PD-L1 small molecule inhibitors were diluted by 3-fold starting from 20 μM and a final concentration of 0.001 μM and added to the well. PD-1 Fc protein was added at the final concentration of 6 nM. PD-L1 His protein, PD-L1 small molecule inhibitors, and PD1 Fc proteins were added to the well in this order, with each 5 μl volume, and were incubated for 15 minutes at room temperature. PAb anti-Human IgG-XL665 (Cisbio, cat #61HFCXLA) and Mab anti-6HIS Tb cryptate Gold (Cisbio, cat #61HI2TLA) were mixed at 6.7 nM and 0.35 nM respectively, and total 5 μl volume of mixture was added to the well and incubated at room temperature for 1 hour. The plate was read using PerkinElmer Envision plate reader and data was analyzed by Prism 6 software.

Sequence of PD-L1 His protein / PD-1 Fc protein (Q9NZQ7 19-238 limits assumed): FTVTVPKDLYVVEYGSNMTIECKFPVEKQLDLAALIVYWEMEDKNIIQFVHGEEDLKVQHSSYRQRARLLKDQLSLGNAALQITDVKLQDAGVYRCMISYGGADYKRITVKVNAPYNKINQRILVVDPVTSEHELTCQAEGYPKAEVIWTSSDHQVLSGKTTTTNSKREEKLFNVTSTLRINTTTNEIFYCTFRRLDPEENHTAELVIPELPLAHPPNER

Point of comparison: `Cc1c(COc2cc(OCc3cncc(C#N)c3)c(CN3CC[C@H](C(=O)O)C3)cc2Cl)cccc1-c1cccc(-c2ccc3c(c2)C(=O)N(C)CC(=O)N3CCN2CC[C@H](C(=O)O)C2)c1C` [Example 30, (S)-1-(4-((3′-(1-(2-((S)-3-Carboxypyrrolidin-1-yl)ethyl)-4-methyl-2,5-dioxo-2,3,4,5-tetrahydro-1H-benzo[e][1,4]diazepin-7-yl)-2,2′-dimethyl-[1,1′-biphenyl]-3-yl)methoxy)-5-chloro-2-((5-cyanopyridin-3-yl)methoxy)benzyl)pyrrolidine-3-carboxylic acid], IC50 0.3 nM. Against it:
- Cc1c(COc2cc(OCc3cncc(C#N)c3)c(CNC[C@@H]3CCC(=O)N3)cc2Cl)cccc1-c1cccc(-c2ccn3c(=O)c(CNC[C@@H]4CCC(=O)N4)cnc3c2)c1C [Example 12, 5-((4-Chloro-5-((2,2′-dimethyl-3′-(4-oxo-3-(((((S)-5-oxopyrrolidin-2-yl)methyl)amino)methyl)-4H-pyrido[1,2-a]pyrimidin-8-yl)-[1,1′-biphenyl]-3-yl)methoxy)-2-(((((S)-5-oxopyrrolidin-2-yl)methyl)amino)methyl)phenoxy)methyl)nicotinonitrile] — the same, 0.3 nM
- Cc1c(COc2cc(OCc3cncc(C#N)c3)c(CNC[C@H]3CCC(=O)N3)cc2Cl)cccc1-c1cccc(-c2ccn3c(=O)c(CNC[C@H]4CCC(=O)N4)cnc3c2)c1C [Example 13, 5-((4-Chloro-5-((2,2′-dimethyl-3′-(4-oxo-3-(((((R)-5-oxopyrrolidin-2-yl)methyl)amino)methyl)-4H-pyrido[1,2-a]pyrimidin-8-yl)-[1,1′-biphenyl]-3-yl)methoxy)-2-(((((R)-5-oxopyrrolidin-2-yl)methyl)amino)methyl)phenoxy)methyl)nicotinonitrile] — 2.7-fold higher, 0.8 nM
- Cc1c(-c2ccn3c(=O)c(CNCCO)cnc3c2)cccc1-c1cccc(COc2cc(OCc3cncc(C#N)c3)c(CNCCO)cc2Cl)c1Cl [Example 14, 5-((4-Chloro-5-((2-chloro-3′-(3-(((2-hydroxyethyl)amino)methyl)-4-oxo-4H-pyrido[1,2-a]pyrimidin-8-yl)-2′-methyl-[1,1′-biphenyl]-3-yl)methoxy)-2-(((2-hydroxyethyl)amino)methyl)phenoxy)methyl)nicotinonitrile] — within 1.5-fold, 0.4 nM
- Cc1c(-c2ccn3c(=O)c(CNCCO)cnc3c2)cccc1-c1cccc(-c2ccn3c(=O)c(CNCCO)cnc3c2)c1C [Example 15, 8,8′-(2,2′-Dimethyl-[1,1′-biphenyl]-3,3′-diyl)bis(3-(((2-hydroxyethyl)amino)methyl)-4H-pyrido[1,2-a]pyrimidin-4-one)] — 200-fold higher, 60 nM
- Cc1c(-c2ccn3c(=O)c(CNCCO)cnc3c2)cccc1-c1cccc(COc2cc(OCc3cncc(C#N)c3)c(CNCCO)cc2Cl)c1C#N [Example 16, 5-((4-Chloro-5-((2-cyano-3′-(3-(((2-hydroxyethyl)amino)methyl)-4-oxo-4H-pyrido[1,2-a]pyrimidin-8-yl)-2′-methyl-[1,1′-biphenyl]-3-yl)methoxy)-2-(((2-hydroxyethyl)amino)methyl)phenoxy)methyl)nicotinonitrile] — 2.3-fold higher, 0.7 nM
- Cc1c(COc2cc(OCc3cncc(C#N)c3)c(CNCCO)cc2Cl)cccc1-c1cccc(-c2cnc3cc(CNCCO)ccn3c2=O)c1C [Example 17, 5-((4-Chloro-2-(((2-hydroxyethyl)amino)methyl)-5-((3′-(8-(((2-hydroxyethyl)amino)methyl)-4-oxo-4H-pyrido[1,2-a]pyrimidin-3-yl)-2,2′-dimethyl-[1,1′-biphenyl]-3-yl)methoxy)phenoxy)methyl)nicotinonitrile] — 6.7-fold higher, 2 nM
- Cc1c(COc2cc(OCc3cncc(C#N)c3)c(CNC[C@@H]3CCC(=O)N3)cc2Cl)cccc1-c1cccc(-c2ccc3c(c2)C(=O)N(C)CC(=O)N3CCNC[C@@H]2CCC(=O)N2)c1C [Example 20, 5-((4-Chloro-5-((2,2′-dimethyl-3′-(4-methyl-2,5-dioxo-1-(2-((((S)-5-oxopyrrolidin-2-yl)methyl)amino)ethyl)-2,3,4,5-tetrahydro-1H-benzo[e][1,4]diazepin-7-yl)-[1,1′-biphenyl]-3-yl)methoxy)-2-(((((S)-5-oxopyrrolidin-2-yl)methyl)amino)methyl)phenoxy)methyl)nicotinonitrile] — 14-fold higher, 4.2 nM
- Cc1c(/C=C(\F)c2ccc(CNCCO)cn2)cccc1-c1cccc(-c2ccn3c(=O)c(CNCCO)cnc3c2)c1C [Example 21, (Z)-8-(3′-(2-Fluoro-2-(5-(((2-hydroxyethyl)amino)methyl)pyridin-2-yl)vinyl)-2,2′-dimethyl-[1,1′-biphenyl]-3-yl)-3-(((2-hydroxyethyl)amino)methyl)-4H-pyrido[1,2-a]pyrimidin-4-one] — 16-fold higher, 4.8 nM
- Cc1c(COc2cc(OCc3cncc(C#N)c3)c(CNCCO)cc2Cl)cccc1-c1cccc(-c2ccc3c(c2)N(C)C(=O)CCC3NCCO)c1C (stereo not drawn) [Example 22, 5-((4-Chloro-5-((3′-(5-((2-hydroxyethyl)amino)-1-methyl-2-oxo-2,3,4,5-tetrahydro-1H-benzo[b]azepin-8-yl)-2,2′-dimethyl-[1,1′-biphenyl]-3-yl)methoxy)-2-(((2-hydroxyethyl)amino)methyl)phenoxy)methyl)nicotinonitrile] — 20-fold higher, 6 nM
- Cc1c(COc2cc(OCc3cncc(C#N)c3)c(CNCCO)cc2Cl)cccc1-c1cccc(-n2ccc(CNCCO)cc2=O)c1C [Example 23, 5-((4-Chloro-2-(((2-hydroxyethyl)amino)methyl)-5-((3′-(4-(((2-hydroxyethyl)amino)methyl)-2-oxopyridin-1(2H)-yl)-2,2′-dimethyl-[1,1′-biphenyl]-3-yl)methoxy)phenoxy)methyl)nicotinonitrile] — 110-fold higher, 33 nM
- Cc1c(COc2cc(OCc3cncc(C#N)c3)c(CNC[C@@H]3CCC(=O)N3)cc2Cl)cccc1-c1cccc(-c2ccn3c(=O)c(CNC[C@@H]4CCC(=O)N4)ccc3c2)c1C [Example 24, 5-((4-Chloro-5-((2,2′-dimethyl-3′-(4-oxo-3-(((((S)-5-oxopyrrolidin-2-yl)methyl)amino)methyl)-4H-quinolizin-8-yl)-[1,1′-biphenyl]-3-yl)methoxy)-2-(((((S)-5-oxopyrrolidin-2-yl)methyl)amino)methyl)phenoxy)methyl)nicotinonitrile] — 1.7-fold higher, 0.5 nM
- Cc1c(COc2cc(OCc3cncc(C#N)c3)c(CNCCO)cc2Cl)cccc1-c1cccc(-c2ccn3c(=O)c(CNCCO)cnc3c2)c1C#N [Example 25, 5-((4-Chloro-5-((2′-cyano-3′-(3-(((2-hydroxyethyl)amino)methyl)-4-oxo-4H-pyrido[1,2-a]pyrimidin-8-yl)-2-methyl-[1,1′-biphenyl]-3-yl)methoxy)-2-(((2-hydroxyethyl)amino)methyl)phenoxy)methyl)nicotinonitrile] — the same, 0.3 nM
- Cc1c(COc2cc(OCc3cncc(C#N)c3)c(CN3CC(CO)C3)cc2Cl)cccc1-c1cccc(-c2ccc3c(c2)C(=O)N(C)CC(=O)N3CCN2CC(CO)C2)c1C [Example 26, 5-((4-Chloro-5-((3′-(1-(2-(3-(hydroxymethyl)azetidin-1-yl)ethyl)-4-methyl-2,5-dioxo-2,3,4,5-tetrahydro-1H-benzo[e][1,4]diazepin-7-yl)-2,2′-dimethyl-[1,1′-biphenyl]-3-yl)methoxy)-2-((3-(hydroxymethyl)azetidin-1-yl)methyl)phenoxy)methyl)nicotinonitrile] — 2.3-fold higher, 0.7 nM
- Cc1c(OCc2cc(OCc3cncc(C#N)c3)c(CNC[C@@H]3CCC(=O)N3)cc2Cl)cccc1-c1cccc(-c2ccc3c(c2)C(=O)N(C)CC(=O)N3CCNC[C@@H]2CCC(=O)N2)c1C [Example 27, 5-((4-Chloro-5-(((2,2′-dimethyl-3′-(4-methyl-2,5-dioxo-1-(2-((((S)-5-oxopyrrolidin-2-yl)methyl)amino)ethyl)-2,3,4,5-tetrahydro-1H-benzo[e][1,4]diazepin-7-yl)-[1,1′-biphenyl]-3-yl)oxy)methyl)-2-(((((S)-5-oxopyrrolidin-2-yl)methyl)amino)methyl)phenoxy)methyl)nicotinonitrile] — 33-fold higher, 9.9 nM
- Cc1c(COc2cc(OCc3cncc(C#N)c3)c(CNC[C@H]3CCC(=O)N3)cc2Cl)cccc1-c1cccc(-c2ccn3c(=O)c(CNC[C@H]4CCC(=O)N4)ccc3c2)c1C [Example 28, 5-((4-Chloro-5-((2,2′-dimethyl-3′-(4-oxo-3-(((((R)-5-oxopyrrolidin-2-yl)methyl)amino)methyl)-4H-quinolizin-8-yl)-[1,1′-biphenyl]-3-yl)methoxy)-2-(((((R)-5-oxopyrrolidin-2-yl)methyl)amino)methyl)phenoxy)methyl)nicotinonitrile] — 2.3-fold higher, 0.7 nM
- Cc1c(COc2cc(OCc3cncc(C#N)c3)c(CN3CC(C(=O)O)C3)cc2Cl)cccc1-c1cccc(-c2ccn3c(=O)c(CN4CC(C(=O)O)C4)ccc3c2)c1C [Example 29, 1-((8-(3′-((4-((3-Carboxyazetidin-1-yl)methyl)-2-chloro-5-((5-cyanopyridin-3-yl)methoxy)phenoxy)methyl)-2,2′-dimethyl-[1,1′-biphenyl]-3-yl)-4-oxo-4H-quinolizin-3-yl)methyl)azetidine-3-carboxylic acid] — 3-fold higher, 0.9 nM
- COc1nc(-c2cccc(-c3cccc(-c4ccn5c(=O)c(CNC[C@@H]6CCC(=O)N6)cnc5c4)c3C)c2C)ccc1CNC[C@@H]1CCC(=O)N1 [Example 31, 8-(3′-(6-Methoxy-5-(((((S)-5-oxopyrrolidin-2-yl)methyl)amino)methyl)pyridin-2-yl)-2,2′-dimethyl-[1,1′-biphenyl]-3-yl)-3-(((((S)-5-oxopyrrolidin-2-yl)methyl)amino)methyl)-4H-pyrido[1,2-a]pyrimidin-4-one] — 7.7-fold higher, 2.3 nM
